According to patent US20230027026A1, “FUSED PYRIMIDINE COMPOUNDS, COMPOSITIONS AND MEDICINAL APPLICATIONS THEREOF” (JUBILANT BIOSYS LIMITED, priority 2019, published 2023):
Where two headings read alike, the source gives them in different places.

What was measured:
Type in all cases: cell-based
[1] = system: A431 cells; test: Cellular proliferation (Alamar Blue) assay, A431; conditions: Homo sapiens
Method: (§1) Example 3: Cellular Proliferation (Alamar Blue) Assays
(§2) • 1. EGFR(D770_N771insSVD) expressing Ba/F3 stable cell line • 2. EGFR (A767_dupASV) expressing Ba/F3 stable cell line • 3. A431 cells • 4. BTER2 (A775_G776insYVMA) expressing Ba/F3 stable cell line • 5. BTER2 (WT) expressing Ba/F3 stable cell line • 6. BT-474 cells
(§3) • 1. Seed cells at 5000 for A431 and 15,000 cells for Ba/F3 in 100 μL/well in complete media (for A431: DMEM with 10% FBS and for Ba/F3 cells: RPMI with 10% FBS) in 96-well tissue culture plate. Leave outer wells without cells for background measurements. Incubate at 37 degree Celsius in 5% CO2 humidified incubator for 16-18 hours. • 2. Add 0.025 ml of 5× concentration compound dilution or DMSO control. Final compound concentration range is 10-0.0005 μM prepared in 3-fold serial dilutions. Incubate for 72 hr at 37 degree Celsius in […] humidified incubator. • 3. Add 0.0125 mL Alamar Blue™ reagent to each well with multi-channel pipette and tap gently on each side of the plate to mix. Incubate for 3 hours at 37 degree Celsius in […] humidified incubator. • 4. Read plates on fluorescence reader (Tecan Spark Control, Device: Spark, Serial #: 1801006040) at 540 nm excitation, 590 nm emission wavelength. • 5. Data analysis was performed using XLfit 5.5.0.5.

[2] = biological target: EGFR (A767_dupASV) expressing Ba/F3 stable cell line (Homo sapiens, UniProt P00533, DUP767-769, cells depend on it); test: Cellular proliferation (Alamar Blue) assay, EGFR A767_dupASV Ba/F3; conditions: EGFR A767_dupASV Ba/F3, 72 hr, read-out: A767 IC50
Method: as §1, §2, §3

[3] = biological target: EGFR(D770_N771insSVD) expressing Ba/F3 stable cell line (Homo sapiens, UniProt P00533, DUP768-770, cells depend on it); test: Cellular proliferation (Alamar Blue) assay, EGFR D770_N771insSVD Ba/F3; conditions: EGFR D770_N771insSVD Ba/F3, 72 hr, read-out: D770 IC50
Method: as §1, §2, §3

[4] = A-431, A431 cells, 72 hr, Alamar Blue, read-out: A431 IC50

EGFR(D770_N771insSVD) expressing Ba/F3 stable cell line, sequence (P00533 with tags, fused parts or gaps DUP768-770): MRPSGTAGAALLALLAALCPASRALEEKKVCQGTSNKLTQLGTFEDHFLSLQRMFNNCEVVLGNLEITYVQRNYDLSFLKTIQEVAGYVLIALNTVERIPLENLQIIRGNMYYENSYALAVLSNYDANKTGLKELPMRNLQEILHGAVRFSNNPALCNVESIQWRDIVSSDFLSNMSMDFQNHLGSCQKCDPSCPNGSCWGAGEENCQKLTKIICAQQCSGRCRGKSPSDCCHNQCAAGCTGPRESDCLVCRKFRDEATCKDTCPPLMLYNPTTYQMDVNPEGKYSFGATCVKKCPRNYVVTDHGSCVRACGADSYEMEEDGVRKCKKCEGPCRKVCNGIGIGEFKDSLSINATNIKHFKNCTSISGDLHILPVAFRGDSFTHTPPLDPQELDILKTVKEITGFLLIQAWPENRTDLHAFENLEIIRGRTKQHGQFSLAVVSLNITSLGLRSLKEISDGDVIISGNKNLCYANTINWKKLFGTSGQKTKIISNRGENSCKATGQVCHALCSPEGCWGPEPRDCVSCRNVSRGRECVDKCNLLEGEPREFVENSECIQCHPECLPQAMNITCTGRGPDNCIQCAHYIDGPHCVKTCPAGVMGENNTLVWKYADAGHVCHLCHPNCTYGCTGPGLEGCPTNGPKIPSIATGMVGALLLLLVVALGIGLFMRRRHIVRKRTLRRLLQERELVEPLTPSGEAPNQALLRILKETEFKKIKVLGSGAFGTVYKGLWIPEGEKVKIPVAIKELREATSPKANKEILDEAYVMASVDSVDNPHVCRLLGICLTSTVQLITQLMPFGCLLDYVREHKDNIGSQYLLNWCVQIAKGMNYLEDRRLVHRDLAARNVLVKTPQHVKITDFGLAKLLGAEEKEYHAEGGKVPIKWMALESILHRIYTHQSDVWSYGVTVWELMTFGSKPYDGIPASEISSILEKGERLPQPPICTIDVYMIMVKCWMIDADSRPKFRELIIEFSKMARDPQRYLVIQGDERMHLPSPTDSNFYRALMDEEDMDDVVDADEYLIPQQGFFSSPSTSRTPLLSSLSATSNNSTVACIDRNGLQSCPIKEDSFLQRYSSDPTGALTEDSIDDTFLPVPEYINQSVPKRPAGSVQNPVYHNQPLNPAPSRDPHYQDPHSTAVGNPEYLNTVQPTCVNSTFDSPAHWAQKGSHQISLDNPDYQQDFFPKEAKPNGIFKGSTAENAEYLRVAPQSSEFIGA
EGFR (A767_dupASV) expressing Ba/F3 stable cell line, sequence (P00533 with tags, fused parts or gaps DUP767-769): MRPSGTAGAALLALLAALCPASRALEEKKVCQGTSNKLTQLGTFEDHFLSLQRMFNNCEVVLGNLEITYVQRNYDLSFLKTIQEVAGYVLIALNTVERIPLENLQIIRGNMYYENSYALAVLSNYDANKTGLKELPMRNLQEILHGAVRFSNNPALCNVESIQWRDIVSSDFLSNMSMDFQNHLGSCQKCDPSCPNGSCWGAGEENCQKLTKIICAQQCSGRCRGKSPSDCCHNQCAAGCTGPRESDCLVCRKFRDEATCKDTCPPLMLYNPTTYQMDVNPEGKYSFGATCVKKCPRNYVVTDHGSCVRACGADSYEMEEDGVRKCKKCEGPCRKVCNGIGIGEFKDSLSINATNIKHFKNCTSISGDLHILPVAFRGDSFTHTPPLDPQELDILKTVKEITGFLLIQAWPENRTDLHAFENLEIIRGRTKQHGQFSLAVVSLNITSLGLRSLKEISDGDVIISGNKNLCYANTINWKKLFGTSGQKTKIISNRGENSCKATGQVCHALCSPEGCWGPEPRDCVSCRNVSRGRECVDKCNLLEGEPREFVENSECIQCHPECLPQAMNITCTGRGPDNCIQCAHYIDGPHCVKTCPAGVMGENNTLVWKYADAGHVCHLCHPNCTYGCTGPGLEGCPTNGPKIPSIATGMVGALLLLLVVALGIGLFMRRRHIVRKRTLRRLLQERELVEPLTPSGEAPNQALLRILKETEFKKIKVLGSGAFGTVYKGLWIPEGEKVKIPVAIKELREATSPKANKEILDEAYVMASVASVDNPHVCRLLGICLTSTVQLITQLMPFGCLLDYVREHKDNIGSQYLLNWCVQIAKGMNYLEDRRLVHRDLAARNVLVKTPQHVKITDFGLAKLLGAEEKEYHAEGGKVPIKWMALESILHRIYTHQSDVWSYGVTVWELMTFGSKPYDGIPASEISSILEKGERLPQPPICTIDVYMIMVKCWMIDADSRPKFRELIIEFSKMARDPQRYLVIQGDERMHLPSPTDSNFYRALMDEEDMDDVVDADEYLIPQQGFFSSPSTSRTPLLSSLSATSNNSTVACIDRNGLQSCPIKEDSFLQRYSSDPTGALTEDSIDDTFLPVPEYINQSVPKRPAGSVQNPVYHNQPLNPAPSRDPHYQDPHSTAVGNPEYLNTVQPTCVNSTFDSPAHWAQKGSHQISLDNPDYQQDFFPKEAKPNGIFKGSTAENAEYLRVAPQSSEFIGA

Compound `C=CC(=O)Nc1cccc(N2C(=O)N(c3ccccc3)Cc3cnc(Nc4cn(C5CCN(C)CC5)nc4Cl)nc32)c1` [Compound 105, N-(3-(7-((3-chloro-1-(1-methylpiperidin-4-yl)-1H-pyrazol-4-yl)amino)-2-oxo-3-phenyl-3,4-dihydropyrimido[4,5-d]pyrimidin-1(2H)-yl)phenyl)acrylamide] has an IC50 [1, 4] of 3600 nM, a GI50 [2] of 12 nM and a GI50 [3] of 14 nM.
`CN(C)C/C=C/C(=O)N(C)c1cccc(N2C(=O)N(c3ccccc3)Cc3cnc(Nc4cn(C)nc4Cl)nc32)c1` [Compound 104, (E)-N-(3-(7-((3-chloro-1-methyl-1H-pyrazol-4-yl)amino)-2-oxo-3-phenyl-3,4-dihydropyrimido[4,5-d]pyrimidin-1(2H)-yl)phenyl)-4-(dimethylamino)-N-methylbut-2-enamide] was tested, and the IC50 [1, 4] was ≥ 10000 nM, the GI50 [2] was 255 nM and the GI50 [3] was 885 nM.
For `CN(C)C/C=C/C(=O)N(C)c1cccc(N2C(=O)N(Cc3ccccc3)Cc3cnc(Nc4cn(C)nc4Cl)nc32)c1` [Compound 63, (E)-N-(3-(3-benzyl-7-((3-chloro-1-methyl-1H-pyrazol-4-yl)amino)-2-oxo-3,4-dihydropyrimido[4,5-d]pyrimidin-1(2H)-yl)phenyl)-4-(dimethylamino)-N-methylbut-2-enamide], the IC50 [1, 4] was ≥ 10000 nM, the GI50 [2] was 532 nM and the GI50 [3] was 1460 nM.
`CN(C)C/C=C/C(=O)Nc1cccc(N2C(=O)N(Cc3ccccc3)Cc3cnc(Nc4cnn5c4OCCC5)nc32)c1` [Compound 97, (E)-N-(3-(3-benzyl-7-((6,7-dihydro-5H-pyrazolo[5,1-b][1,3]oxazin-3-yl)amino)-2-oxo-3,4-dihydropyrimido[4,5-d]pyrimidin-1(2H)-yl)phenyl)-4-(dimethylamino)but-2-enamide] was tested, and the IC50 [1, 4] was ≥ 10000 nM, the GI50 [2] was 2630 nM and the GI50 [3] was 2540 nM.
`COc1cc(CN2Cc3cnc(Nc4cn(C)nc4Cl)nc3N(c3cccc(NC(=O)/C=C/CN(C)C)c3)C2=O)ccn1` [Compound 62, (E)-N-(3-(7-((3-chloro-1-methyl-1H-pyrazol-4-yl)amino)-3-((2-methoxypyridin-4-yl)methyl)-2-oxo-3,4-dihydropyrimido[4,5-d]pyrimidin-1(2H)-yl)phenyl)-4-(dimethylamino)but-2-enamide] was tested, and the IC50 [1, 4] was ≥ 10000 nM, the GI50 [2] was 2260 nM and the GI50 [3] was 5480 nM.
For `CN(C)C/C=C/C(=O)Nc1cccc(N2C(=O)N(Cc3ccccc3)Cc3cnc(Nc4cccc5c4CCN5C4CCN(C)CC4)nc32)c1` [Compound 98, (E)-N-(3-(3-benzyl-7-((1-(1-methylpiperidin-4-yl)indolin-4-yl)amino)-2-oxo-3,4-dihydropyrimido[4,5-d]pyrimidin-1(2H)-yl)phenyl)-4-(dimethylamino)but-2-enamide], the IC50 [1, 4] was ≥ 10000 nM, the GI50 [2] was 322 nM and the GI50 [3] was 138 nM.
`C=CC(=O)Nc1cc(N2C(=O)N(Cc3ccccc3)Cc3cnc(Nc4cn(C)nc4Cl)nc32)ccc1OC(F)(F)F` [Compound 78, N-(5-(3-benzyl-7-((3-chloro-1-methyl-1H-pyrazol-4-yl)amino)-2-oxo-3,4-dihydropyrimido[4,5-d]pyrimidin-1(2H)-yl)-2-(trifluoromethoxy)phenyl)acrylamide] gave an IC50 [1, 4] of 4180 nM, a GI50 [2] of 8370 nM and a GI50 [3] of 8780 nM.
In the case of `CN1CCN(C/C=C/C(=O)Nc2cccc(N3C(=O)N(c4ccccc4)Cc4cnc(Nc5cn(C)nc5Cl)nc43)c2)CC1` [Compound 126, (E)-N-(3-(7-((3-chloro-1-methyl-1H-pyrazol-4-yl)amino)-2-oxo-3-phenyl-3,4-dihydropyrimido[4,5-d]pyrimidin-1(2H)-yl)phenyl)-4-(4-methylpiperazin-1-yl)but-2-enamide], the IC50 [1, 4] is reported as ≥ 10000 nM, the GI50 [2] is reported as 1090 nM and the GI50 [3] is reported as 2290 nM.
In the case of `CN(C)C/C=C/C(=O)Nc1ccc(Cl)c(N2C(=O)N(Cc3ccccc3)Cc3cnc(Nc4cn(C)nc4Cl)nc32)c1` [Compound 86, (E)-N-(3-(3-benzyl-7-((3-chloro-1-methyl-1H-pyrazol-4-yl)amino)-2-oxo-3,4-dihydropyrimido[4,5-d]pyrimidin-1(2H)-yl)-4-chlorophenyl)-4-(dimethylamino)but-2-enamide], the IC50 [1, 4] is reported as 5440 nM, the GI50 [2] is reported as 694 nM and the GI50 [3] is reported as 900 nM.
For `CN(C)C/C=C/C(=O)Nc1cccc(N2C(=O)N(Cc3ccccc3)Cc3cnc(Nc4cn(CC(F)F)nc4Cl)nc32)c1` [Compound 101, (E)-N-(3-(3-benzyl-7-((3-chloro-1-(2,2-difluoroethyl)-1H-pyrazol-4-yl)amino)-2-oxo-3,4-dihydropyrimido[4,5-d]pyrimidin-1(2H)-yl)phenyl)-4-(dimethylamino)but-2-enamide], the IC50 [1, 4] was ≥ 10000 nM, the GI50 [2] was 100 nM and the GI50 [3] was 176 nM.
For `CN(C)C/C=C/C(=O)Nc1cccc(N2C(=O)N(Cc3ccccc3)Cc3cnc(Nc4ccn(C)n4)nc32)c1` [Compound 52, (E)-N-(3-(3-benzyl-7-((1-methyl-1H-pyrazol-3-yl)amino)-2-oxo-3,4-dihydropyrimido[4,5-d]pyrimidin-1(2H)-yl)phenyl)-4-(dimethylamino)but-2-enamide], the IC50 [1, 4] was ≥ 10000 nM, the GI50 [2] was 244 nM and the GI50 [3] was 341 nM.
With `COc1nn(C)cc1Nc1ncc2c(n1)N(c1cccc(NC(=O)/C=C/CN(C)C)c1)C(=O)N(Cc1ccccc1)C2` [Compound 56, (E)-N-(3-(3-benzyl-7-((3-methoxy-1-methyl-1H-pyrazol-4-yl)amino)-2-oxo-3,4-dihydropyrimido[4,5-d]pyrimidin-1(2H)-yl)phenyl)-4-(dimethylamino)but-2-enamide] the IC50 [1, 4] was ≥ 10000 nM, the GI50 [2] was 65 nM and the GI50 [3] was 107 nM.
For `CN(C)C/C=C/C(=O)Nc1cccc(N2C(=O)N(Cc3ccccc3)Cc3cnc(Nc4cnoc4)nc32)c1` [Compound 58, (E)-N-(3-(3-benzyl-7-(isoxazol-4-ylamino)-2-oxo-3,4-dihydropyrimido[4,5-d]pyrimidin-1(2H)-yl)phenyl)-4-(dimethylamino)but-2-enamide], the IC50 [1, 4] was ≥ 10000 nM, the GI50 [2] was 801 nM and the GI50 [3] was 2110 nM.
In the case of `C[C@H](c1ccccc1)N1Cc2cnc(Nc3cnn(C)c3)nc2N(c2cccc(NC(=O)/C=C/CN(C)C)c2)C1=O` (single isomer, unassigned) [Compound 133], the IC50 ([1]; A-431, 72 h, read-out: A431 IC50 (nM)) is reported as ≥ 10000 nM, the GI50 [2] is reported as 1120 nM and the GI50 [3] is reported as 2690 nM.
With `C=CC(=O)Nc1cccc(N2C(=O)N(c3ccccc3)Cc3cnc(Nc4cn(C5CCNCC5)nc4Cl)nc32)c1` [Compound 132, N-[3-(7-{[3-chloro-1-(piperidin-4-yl)-1H-pyrazol-4-yl]amino}-2-oxo-3-phenyl-1H,2H,3H,4H-pyrimido[4,5-d][1,3]diazin-1-yl)phenyl]prop-2-enamide] the IC50 [1, 4] was ≥ 10000 nM, the GI50 [2] was 960 nM and the GI50 [3] was 973 nM.
For `CN(C)C/C=C/C(=O)Nc1cccc(N2C(=O)N(Cc3ccccc3)Cc3cnc(Nc4cn(CCF)nc4Cl)nc32)c1` [Compound 93, (E)-N-(3-(3-benzyl-7-((3-chloro-1-(2-fluoroethyl)-1H-pyrazol-4-yl)amino)-2-oxo-3,4-dihydropyrimido[4,5-d]pyrimidin-1(2H)-yl)phenyl)-4-(dimethylamino)but-2-enamide], the IC50 [1, 4] was ≥ 10000 nM, the GI50 [2] was 108 nM and the GI50 [3] was 91 nM.
In the case of `C/C=C/C(=O)Nc1cccc(N2C(=O)N(Cc3ccccc3)Cc3cnc(Nc4cn(C)nc4F)nc32)c1` [Compound 87, (E)-N-(3-(3-benzyl-7-((3-fluoro-1-methyl-1H-pyrazol-4-yl)amino)-2-oxo-3,4-dihydropyrimido[4,5-d]pyrimidin-1(2H)-yl)phenyl)but-2-enamide], the IC50 [1, 4] is reported as > 10000 nM, the GI50 [2] is reported as 2240 nM and the GI50 [3] is reported as 1980 nM.
With `CN(C)C/C=C/C(=O)Nc1cccc(N2C(=O)N(Cc3ccccc3)Cc3cnc(Nc4ccc5c(c4)ncn5C)nc32)c1` [Compound 102, (E)-N-(3-(3-benzyl-7-((1-methyl-1H-benzo[d]imidazol-5-yl)amino)-2-oxo-3,4-dihydropyrimido[4,5-d]pyrimidin-1(2H)-yl)phenyl)-4-(dimethylamino)but-2-enamide] the IC50 [1, 4] was ≥ 10000 nM, the GI50 [2] was 694 nM and the GI50 [3] was 929 nM.
In the case of `Cc1cn2cc(Nc3ncc4c(n3)N(c3cccc(NC(=O)/C=C/CN(C)C)c3)C(=O)N(Cc3ccccc3)C4)ccc2n1` [Compound 100, (E)-N-(3-(3-benzyl-7-((2-methylimidazo[1,2-a]pyridin-6-yl)amino)-2-oxo-3,4-dihydropyrimido[4,5-d]pyrimidin-1(2H)-yl)phenyl)-4-(dimethylamino)but-2-enamide], the IC50 [1, 4] is reported as ≥ 10000 nM, the GI50 [2] is reported as 2970 nM and the GI50 [3] is reported as 4810 nM.
`CN(C)C/C=C/C(=O)Nc1cccc(N2C(=O)N(Cc3ccccc3)Cc3cnc(Nc4cnc5c(cnn5C)c4)nc32)c1` [Compound 53, (E)-N-(3-(3-benzyl-7-((1-methyl-1H-pyrazolo[3,4-b]pyridin-5-yl)amino)-2-oxo-3,4-dihydropyrimido[4,5-d]pyrimidin-1(2H)-yl)phenyl)-4-(dimethylamino)but-2-enamide] was tested, and the IC50 [1, 4] was ≥ 10000 nM, the GI50 [2] was 474 nM and the GI50 [3] was 1050 nM.
